Reference: patent US20260151457A1, “Peptides and Fragments for Treating Diabetes and Associated Metabolic Diseases” (Betavive Ltd., priority 2024, published 2026)
“Also recorded” adds a separate entry of the source.

Assays:
C57BL/6 STZ mice [1] = test: Fasting blood glucose in STZ-induced diabetic C57BL/6 mice treated with IGF-2; type: in vivo; conditions: for Fasting glucose levels: individual mice per block
Procedure: C57BL/6 mice male 8-10 weeks old, housed under conventional conditions and allowed laboratory chow and water ad libitum, were used in the experiments described below in Examples 3-4. Within each experiment, animals were matched by age and weight (20-24 g) and randomly divided into groups to receive different treatments. Diabetes was induced by one or more doses of streptozotocin (STZ).
Briefly, animals received intraperitoneally (i.p.) 100 mg/kg (b.w.) STZ (Cayman Chemical, Ann Arbor, MI) dissolved in citrate buffer on pH 4.5 (this procedure was repeated if needed). Clinical diabetes was defined by hyperglycemia (blood glucose levels >300 mg/dl in fasted animals). Fasting blood glucose levels were measured three times per week and samples were taken from the tail tip after starvation for 6 hours throughout the experiment.
Fasting blood glucose levels (mg/dL) were determined using the Accu-Chek Performa glucometer (Roche Diagnostics, Mannheim, Germany). After approximately two weeks of stable hyperglycemia, C57BL/6 STZ mice received exogenous injections of recombinant human IGF-2 (0.3-12 mg/kg/day injection) intraperitoneally for 5-10 consecutive days. During post-treatment follow-up period and upon termination, mice were tested for: fasting glucose, body weight, glucose tolerance test (IPGTT), serum C-peptide level, serum insulin level, and full blood and histological analysis (CBC, Chemistry, Insulin IHC and H&E).

STZ-treated mice = test: Pancreas histology and insulin immunohistochemistry in STZ-treated mice; type: in vivo
Procedure: FIG. 21 depicts pancreas histology results on STZ-treated mice. […] The non-control mice were treated once a day for 10 days with a 3000 μg/kg dose of IGF-2. The mice were sacrificed on day 35 and pancreas cells were assessed as being insulin positive or negative.

db/db mice [2] = test: Serum insulin in db/db mice after long-term IGF-2 treatment; type: in vivo; conditions: 12,000 μg/kg daily for 68 days, measured 6.5 weeks after end of treatment
Procedure: In this experiment, one group of db/db mice (labeled FA X1) was injected with 3000 μg/kg of IGF-2 once a day for 68 days, a second group of db/db mice (labeled FA X4) was injected with a daily dose of 12000 μg/kg of IGF-2 divided in two injections per day for 68 days, and a third group of db/db mice was injected with saline. Serum insulin levels were measured 6.5 weeks after the end of the 68 day treatment. Treatment with the 12,000 μg/kg daily dose increased serum insulin levels by about 50% with respect to the control.

db/db mice [3] = test: Histopathology and immunohistochemistry of pancreas islet cells in db/db mice treated with IGF-2; type: in vivo
Procedure: FIG. 27 provides results of histopathology and immunohistochemical studies showing the number of pancreas islet cells that test positive for insulin (left panel) and glucagon (right panel) in db/db mice. In this experiment, one group of db/db mice was injected with 12000 μg/kg of IGF-2 on each of 70 consecutive days, a second group of db/db mice was injected with saline, and a third group of db/db mice was a naïve control group. The mice were sacrificed for pathology 70 days after the end of the initial 70 day treatment.
In this experiment, one group of db/db mice (labeled X4) was injected with 12000 μg/kg of IGF-2 on each of 70 consecutive days, a second group of db/db mice (labeled X1) was injected with 3000 μg/kg of IGF-2 on each of 70 consecutive days, and a third group of db/db mice (labeled control) was injected with saline. The mice were sacrificed for pathology 70 days after the end of the initial 70 day treatment. […] The control panels show a positive stain for insulin, which increases in intensity in the 3000 μg/kg/day mice, and increases again in intensity in the 12,000 μg/kg/day mice.

β-MIN6 cells = test: Cell count (proliferation) of β-MIN6 cells; type: cell-based, mouse; conditions: 5 nM, 20 nM, 80 nM, 1 week treatment
Source text: β-MIN6 cells serve as an in vitro model of mouse pancreatic islets. β-MIN6 cells were used as an in vitro model to measure the effects of treatment with IGF-2.

STZ-treated mouse islets = test: Insulin secretion from STZ-treated mouse islets; type: cell-based; conditions: islets treated with 2.5 mM STZ; IGF-2 50 nM and 500 nM, GLP-1 100 nM and 1000 nM; 48 hours
Procedure: Mouse islet cells were treated with 2.5 mM STZ and subsequently treated with either IGF-2 (FA) at 50 nM and 500 nM, or with GLP-1 at 100 nM and 1000 nM.

[4] = system: human pancreatic islet cells; test: Insulin secretion of human pancreatic islet cells in response to a glucose pulse; type: cell-based; conditions: IGF-2 50 nM for four days
Beta-TC-6 cells = test: Insulin secretion assay using Beta-TC-6 cells; type: cell-based; conditions: 2 hours, 500 mM of each peptide, Mouse Insulin ELISA
Procedure: To evaluate insulin secretion in response to peptide treatment, Beta-TC-6 cells were plated in 96-well culture plates at a density of 8×10^4 cells per well. After 48 hours of incubation, the cells were washed and preincubated in serum-free medium for 1 hour. Following this, cells were treated for 2 hours with 200 μl of serum-free medium supplemented with […] of each peptide. After the treatment period, the induction medium was collected and stored at −80° C. until analysis. Insulin levels in the collected medium were measured using the Mercodia Mouse Insulin ELISA Kit (#10-1247-01) according to the manufacturer's instructions. […] Results appear in FIG. 36.

C57BL/6 STZ mice [5] = test: Fasting blood glucose in STZ-induced diabetic C57BL/6 mice treated with IGF-2; type: in vivo; conditions: IGF-2 12,000 μg/kg daily on each of 12 consecutive days
[6] = average of four STZ mice, daily intraperitoneal 3000 μg/kg/day IGF-2

With insulin-like growth factor 2 [IGF-2] as the substance, how does the Hypoglycemia (C57BL/6 STZ mice [1]; 10:1 ratio of dosages, between 3000 μg and 300 μg) read?
Its Hypoglycemia is “did not cause hypoglycemia”.

What about the “Fasting glucose levels after the ten day course of injections ended” value (C57BL/6 STZ mice [1]; STZ mice F3 and F4, IGF-2 800 μg/kg/day) of the same substance?
The value was “around 400”.

What about the Fasting glucose levels (C57BL/6 STZ mice [1]; STZ mice, IGF-2 300 μg/kg/day, initial plus ten additional doses) of the same substance?
The Fasting glucose levels was “did not return to a normal range, and long-term results were not observed; also recorded: temporary drop in fasting glucose levels from days 10-25, but the long-term results were similar to the results for Mouse B5”.

And the Fasting glucose levels (C57BL/6 STZ mice [1]; STZ mice, IGF-2 800 μg/kg/day, day 0 and ten more times within ten days)?
The Fasting glucose levels was “returned to a normal range during the ten-day course of treatment with IGF-2, and remained in the normal range until the end of the experiment; also recorded: returned to a normal range during the ten-day course of treatment with IGF-2, and remained in the normal range until STZ was provided again”.

And the “Blood glucose levels remaining (full or almost full resolution)” value (C57BL/6 STZ mice [1]; STZ mice, IGF-2 800 μg/kg/day, half the mice (FIGS. 5A, 5B))?
The value was about 200 mg/dL.

And the “Blood glucose levels remaining (partial improvement)” value (C57BL/6 STZ mice [1]; STZ mice, IGF-2 800 μg/kg/day, the remaining mice (FIGS. 6A, 6B))?
Its value is about 400 mg/dL.

And the Fasting glucose levels (C57BL/6 STZ mice [1]; STZ mice, IGF-2 3000 μg/kg/day, 10 day course)?
The Fasting glucose levels was “returned to a normal range during the ten-day course of treatment with IGF-2, and remained in the normal range until the end of the experiment; also recorded: returned to high levels after the 10 day course treatment with IGF-2 ended; also recorded: initially responded to treatment with a 3000 μg/kg/day dose of IGF-2 but were not permanently cured”.

What about the “Long-term improvements in blood glucose levels” value (C57BL/6 STZ mice [1]; STZ mice, IGF-2 12,000 μg/kg daily on only 5 consecutive days) of the same substance?
Its value is “long-term improvements in blood glucose levels were not obtained”.

And the “Blood glucose level reached (normal range)” value (C57BL/6 STZ mice [1]; [6])?
The value was 100 to 200 mg/dL.

And the “Time to reduce blood glucose to a normal range” value (C57BL/6 STZ mice [1]; [6])?
The value was 3 to 5 days.

And the Hypoglycemia (C57BL/6 STZ mice [1]; even when the IGF-2 dose was increased to 12,000 μg/kg/day)?
The Hypoglycemia was “Hypoglycemia was never observed”.

And the “Time post treatment that normal blood glucose levels are maintained” value (C57BL/6 STZ mice [1]; four STZ mice, 10 day course at 3000 μg/kg/day, no additional doses)?
The value was “at least 300 days”.

And the “Level of insulin in pancreas islets compared to a naïve mouse (IHC)” value (STZ-treated mice; non-permanently cured mouse)?
Its value is “lower level of insulin in its pancreas islets”.

What about the “Increase in the number of functional beta cells” value (STZ-treated mice; permanently cured mice, 3000 μg/kg once a day for 10 days, sacrificed on day 35) of the same substance?
Its value is “four”.

And the “Level of insulin in pancreas islets compared to a naïve mouse (IHC)” value (STZ-treated mice; permanently cured mouse)?
Its value is “higher level of insulin in its pancreas islets”.

What about the “Increase in serum insulin levels with respect to the control” value (db/db mice [2]) of the same substance?
The value was “about 50%”.

What about the “Increase in the number of insulin-positive cells” value (db/db mice [3]; 12000 μg/kg on 70 consecutive days, sacrificed 70 days after end of treatment) of the same substance?
The value was “more than 50%”.

What about the “Insulin positive cells (immunohistochemical staining)” value (db/db mice [3]; 3000 and 12000 μg/kg on 70 consecutive days) of the same substance?
The value was “increase in insulin positive cells in a dose-dependent manner”.

What about the “Cell count (cell proliferation)” value (β-MIN6 cells) of the same substance?
The value was “increases cell proliferation in a dose-dependent manner”.

And the Insulin secretion (STZ-treated mouse islets)?
The Insulin secretion was “increased in a dose dependent manner”.

What about the “Increase in insulin secretion in response to a glucose pulse compared to untreated cells” value [4] of the same substance?
Its value is about 50%.

And the “Insulin secretion compared to the control” value (Beta-TC-6 cells)?
Its value is “enhanced insulin secretion compared to the control”.

And the “Long-term improvements in blood glucose levels” value (C57BL/6 STZ mice [5])?
The value was “long-term improvements in blood glucose levels were obtained”.
